Results from US6375926B1, “Labelled elastase inhibitors” (Amersham International PLC, priority 1996, dated 2002).

Experiments:
[1] = system: isolated human white cells (granulocytes; monocytes + lymphocytes); assay: In vitro cell uptake in isolated human white cells; type: cell-based; conditions: for selectivity for granulocytes over a mixture of monocytes/lymphocytes: approximately equivalent numbers of monocytes/lymphocytes and granulocytes present; for % uptake in Gran. (granulocytes), WHITE CELLS / % uptake in Mon. (monocytes + lymphocytes), WHITE CELLS: isolated human white cells, 30 minutes at 37° C., radiolabelled compound
Protocol: Fresh blood (30-120 ml) was anticoagulated with 1.5% ACD solution and sedimented by addition of 2 ml Hespan per 10 ml blood for 90 minutes at room temperature. The leucocyte rich platelet rich plasma supernatant was removed and centrifuged at 150 g for 5 minutes, yielding a leucocyte rich pellet and platelet rich plasma (PRP). The PRP was centrifuged at 4000 g to pellet the platelets leaving a cell free plasma (CFP). The leucocyte pellet was resuspended in a 50:50 mixture of HBSS and CFP and incubated with the radioactive compound for 30 minutes at 37° C. Free radioactive material was then removed from the cells by addition of an excess of HBSS:CFP and centrifugation of the leucocytes at 150 g for 7 minutes. The supernatant and cell pellet were taken for radioactive counting for calculation of percentage cell uptake. The distribution of radioactivity within the cell pellet was assessed by separation of the cell types using Percoll density gradient centrifugation (38%, 55% and 73% Percoll in HBSS step gradients). The residual plasma and free activity was recovered from the top of the gradient, the mononuclear cells (lymphocytes and monocytes) from the interface between 38% and 55%, and the granulocytes were recovered from the interface between 55% and 73% Percoll.

[2] = molecular target: T1, HLE (human leucocyte elastase) (Homo sapiens, UniProt P08246); assay: Measurement of HLE inhibition potency (kinact/Ki); type: biochemical; conditions: measured for non-radioactive iodine-labelled compounds and unlabelled chelate conjugates
T1 sequence (P08246 30-267): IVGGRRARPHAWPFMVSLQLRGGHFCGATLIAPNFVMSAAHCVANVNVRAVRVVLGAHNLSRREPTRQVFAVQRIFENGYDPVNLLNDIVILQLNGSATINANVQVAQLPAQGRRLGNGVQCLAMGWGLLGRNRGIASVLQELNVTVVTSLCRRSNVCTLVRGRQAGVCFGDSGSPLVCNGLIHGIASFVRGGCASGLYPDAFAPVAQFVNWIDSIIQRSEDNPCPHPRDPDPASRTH
Protocol: Inhibitor potency against HLE is described by the parameter kinact/Ki as previously reported [Knight et al., Biochem., 8160-8170, (1992)]. Lyophilised enzyme was reconstituted with TrisHCl buffer, 100 mM, 0.5M NaCl at 0.05 units/ml (approximately nanomolar concentration) in a final reaction volume of 1 ml to which was added methoxysucc-ala-ala-pro-val-pNA substrate (1 mM) and the elastase inhibitor dissolved in DMSO. The reaction was monitored by detecting the change of absorbance at 410 nm (hydrolysis of the substrate releasing p-nitroaniline) over a timescale of 25 minutes. Values of kinact/Ki were estimated according to the Knight et al method.

[3] = system: mixed human red/white cells (granulocytes, monocytes + lymphocytes, erythrocytes); assay: In vitro cell uptake in mixed human red/white cells; type: cell-based; conditions: radiolabelled compound
Protocol: The radioactive compound was also incubated with an isolated leucocyte preparation to which an erythrocyte fraction had been added back. The packed erythrocytes obtained after blood sedimentation were washed twice with HBSS and then resuspended in their original blood volume with HBSS. Leucocytes obtained from 30 ml blood were resuspended in 0.5 ml erythrocyte suspension and 0.5 ml CFP. The cell suspension was then incubated with compound as above. Analysis of the distribution of activity in the cell pellet in the presence of red blood cells was carried out using Ficoll-Hypaque discontinuous density gradients (densities 1.04, 1.077 and 1.119 g/ml Histopaque steps).

[4] = system: human whole blood (granulocytes, monocytes + lymphocytes, erythrocytes); assay: In vitro cell uptake in human whole blood; type: cell-based; conditions: 37° C. for 1 hour, radiolabelled compound
Protocol: The radioactive compound was added to 1 ml whole blood anticoagulated with ACD and incubated at 37° C. for 1 hour. The blood was diluted with HBSS and the cellular component separated by centrifugation. Distribution of activity within the cellular pellet was assessed by separation of cell fractions on Ficoll-Hypaque gradients as above.

Row | Compound | selectivity for granulocytes over a mixture of monocytes/lymphocytes [1] | % uptake in Gran. (granulocytes), WHITE CELLS [1] [%] | % uptake in Mon. (monocytes + lymphocytes), WHITE CELLS [1] [%] | Potency (1/(M·s)), kinact/Ki [2] [M⁻¹ s⁻¹] | % uptake in Eryth. (erythrocytes), WHITE AND RED CELLS [3] [%] | % uptake in Gran. (granulocytes), WHITE AND RED CELLS [3] [%] | % uptake in Mon. (monocytes + lymphocytes), WHITE AND RED CELLS [3] [%] | % uptake in Eryth. (erythrocytes), WHOLE BLOOD [4] [%] | % uptake in Gran. (granulocytes), WHOLE BLOOD [4] [%] | % uptake in Mon. (monocytes + lymphocytes), WHOLE BLOOD [4] [%] | kinact/KI ([2]; read-out: Potency (M/sec), kinact/Ki) [M⁻¹ s⁻¹]
1 | CCC1(CC)C(=O)N(C(=O)NCc2ccc(I)cc2)C1Oc1ccc(C(=O)N2CCN(C)CC2)cc1 (single isomer, unassigned) [Compound 4b] | some degree of selectivity for granulocytes | 4.8 | 0.9 | 1350 | 1.6 | 3.3 | 3.8 | – | – | – | –
2 | CCC1(CC)C(=O)N(C(=O)NCCC(=O)NCCN(CCNC(C)(C)C(C)=NO)CCNC(C)(C)C(C)=NO)C1Oc1ccc(C(=O)N2CCN(C)CC2)cc1 (racemic) [Compound 51, Conjugate Between Chelate, 3,3,11,11-Tetramethyl-7-aminomethyl-4,7,10-triazatridecane-2,12-dionedioxime and 4-[4-[[(4-Methyl)piperazin-1-yl]carbonyl]phenoxy]-1-[(2-carboxy)ethylaminocarbonyl]-3,3-diethyl-2-azetidinone] | some degree of selectivity for granulocytes | 3.9 | 0.4 | 2500 | 11.2 | 1.9 | 13.4 | 0.8 | 1.7 | 28.7 | –
3 | CCC1(CC)C(=O)N(C(=O)NCc2ccc(C(=O)NCC(C)(CNC(C)(C)C(C)=NO)CNC(C)(C)C(C)=NO)cc2)C1Oc1ccc(C(=O)N2CCN(C)CC2)cc1 (racemic) [Compound 38, Conjugate Between Chelate, 3,3,6,9,9-Pentamethyl-6-aminomethyl-4,8-diazaundecane-2,10-dionedioxime and 4-[4-[[(4-Methyl)piperazin-1-yl]carbonyl]phenoxy]-1-[(4-carboxy)benzylaminocarbonyl]-3,3-diethyl-2-azetidinone] | some degree of selectivity for granulocytes | 75.5 | 8.5 | 58500 | 28.4 | 32.5 | 6.7 | – | – | – | –
4 | CCC1(CC)C(=O)N(C(=O)NCCC(=O)NCC(C)(CNC(C)(C)C(C)=NO)CNC(C)(C)C(C)=NO)C1Oc1ccc(C(=O)N2CCN(C)CC2)cc1 (racemic) [Compound 42, Conjugate Between Chelate, 3,3,6,9,9-pentamethyl-6-aminomethyl-4,8-diazaundecane-2,10-dionedioxime and 4-[4-[[(4-Methyl)piperazin-1-yl]carbonyl]phenoxy]-1-[(2-carboxy)ethylaminocarbonyl]-3,3-diethyl-2-azetidinone] | some degree of selectivity for granulocytes | 8.4 | 1.2 | 1400 | 18.9 | 2.5 | 6.9 | – | – | – | –
5 | CCC1(CC)C(=O)N(C(=O)NCc2ccccc2)C1Oc1ccc(C(=O)NCCN(CCNC(C)(C)C(C)=NO)CCNC(C)(C)C(C)=NO)cc1 (racemic) [Compound 52, Conjugate Between Chelate, 3,3,11,11-tetramethyl-7-aminomethyl-4,7,10-triazatridecane-2,12-dionedioxime and 4-[(4-carboxy)phenoxy]-1-[benzylaminocarbonyl]-3,3-diethyl-2-azetidinone] | some degree of selectivity for granulocytes | 1.9 | 0.8 | 7800 | 7.1 | 1.8 | 8.2 | 37.4 | 9.1 | 10.9 | –
6 | CCC1(CC)C(=O)N(C(=O)NCCc2cc(I)c(O)c(I)c2)C1S(=O)(=O)CCOC (centres unmarked) [Compound 17, 4-(2-Methoxyethylsulfonyl)-1-[(3,5-diiodo)(4-hydroxy)phenylethylaminocarbonyl]-3,3-diethyl-2-azetidinone] | some degree of selectivity for granulocytes | 0.4 | 0.0 | – | – | – | – | – | – | – | 600
7 | CCC1(CC)C(=O)N(C(=O)NCc2ccccc2)C1Oc1ccc(C(=O)NCC(C)(CNC(C)(C)C(C)=NO)CNC(C)(C)C(C)=NO)cc1 (racemic) [Compound 49, Conjugate Between Chelate, 3,3,6,9,9-pentamethyl-6-aminomethyl-4,8-diazaundecane-2,10-dionedioxime and 4-[(4-carboxy)phenoxy]-1-[benzylaminocarbonyl]-3,3-diethyl-2-azetidinone] | some degree of selectivity for granulocytes | 47.3 | 10.1 | 20000 | 18.0 | 17.5 | 13.9 | 14.3 | 6.9 | 24.6 | –
8 | CCC1(CC)C(=O)N(C(=O)NCCCCCC(=O)NCC(C)(CNC(C)(C)C(C)=NO)CNC(C)(C)C(C)=NO)C1Oc1ccc(C(=O)N2CCN(C)CC2)cc1 (racemic) [Compound 48, Conjugate Between Chelate, 3,3,6,9,9-pentamethyl-6-aminomethyl-4,8-diazaundecane-2,10-dionedioxime and 4-[4-[[(4-Methyl)piperazin-1-yl]carbonyl]phenoxy]-1-[(5-carboxy)pentylaminocarbonyl]-3,3-diethyl-2-azetidinone] | some degree of selectivity for granulocytes | 64.5 | 7.3 | 5500 | 38.7 | 16.2 | 7.2 | 9.17 | 10.6 | 22.7 | –
